Measured values published in US10392368B2, “Pyrazolo and triazolo bicyclic compounds as JAK kinase inhibitors” (THERAVANCE BIOPHARMA R&D IP, LLC, priority 2017, dated 2019).
Where two headings read alike, the source gives them in different places.

Columns and labels:
JAK2 = target: T1, JAK2 (Homo sapiens, UniProt O60674); assay: Biochemical JAK2 kinase assay (LanthaScreen); settings: for Ki: read-out: JAK 2 (pKi) (converted)
T1 construct: GST; purchased Life Technologies
In short: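 GST-tagged recombinant JAK2 pre-incubated 1 h at ambient temperature with compound and GFP-STAT1 peptide in HEPES pH 7.5/MgCl2 buffer, then ATP added for a 1 h reaction with 1% DMSO. TR-FRET read after EDTA and Tb-anti-pSTAT1 (pTyr701) addition; IC50 from 4-parameter fit, converted to pKi by Cheng-Prusoff.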

JAK1 = target: T2, JAK1 (Homo sapiens, UniProt P23458); assay: Biochemical JAK1 kinase assay (LanthaScreen); settings: for Ki: read-out: JAK 1 (pKi) (converted)
T2 construct: GST; purchased Life Technologies
In short: (§1)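 Values are pKi, calculated by Cheng-Prusoff from IC50 obtained by robust 4-parameter fitting of percent inhibition. The kinase reaction used GFP-STAT1 peptide in HEPES pH 7.5 buffer with MgCl2, EGTA and Brij-35, ATP-initiated after compound pre-incubation, 1 h at ambient temperature.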

JAK3 = target: T3, JAK3 (Homo sapiens, UniProt P52333); assay: Biochemical JAK3 kinase assay (LanthaScreen); set-up: GST; purchased Life Technologies; settings: for Ki: read-out: JAK 3 (pKi) (converted)
T3 sequence (P52333 1-1124): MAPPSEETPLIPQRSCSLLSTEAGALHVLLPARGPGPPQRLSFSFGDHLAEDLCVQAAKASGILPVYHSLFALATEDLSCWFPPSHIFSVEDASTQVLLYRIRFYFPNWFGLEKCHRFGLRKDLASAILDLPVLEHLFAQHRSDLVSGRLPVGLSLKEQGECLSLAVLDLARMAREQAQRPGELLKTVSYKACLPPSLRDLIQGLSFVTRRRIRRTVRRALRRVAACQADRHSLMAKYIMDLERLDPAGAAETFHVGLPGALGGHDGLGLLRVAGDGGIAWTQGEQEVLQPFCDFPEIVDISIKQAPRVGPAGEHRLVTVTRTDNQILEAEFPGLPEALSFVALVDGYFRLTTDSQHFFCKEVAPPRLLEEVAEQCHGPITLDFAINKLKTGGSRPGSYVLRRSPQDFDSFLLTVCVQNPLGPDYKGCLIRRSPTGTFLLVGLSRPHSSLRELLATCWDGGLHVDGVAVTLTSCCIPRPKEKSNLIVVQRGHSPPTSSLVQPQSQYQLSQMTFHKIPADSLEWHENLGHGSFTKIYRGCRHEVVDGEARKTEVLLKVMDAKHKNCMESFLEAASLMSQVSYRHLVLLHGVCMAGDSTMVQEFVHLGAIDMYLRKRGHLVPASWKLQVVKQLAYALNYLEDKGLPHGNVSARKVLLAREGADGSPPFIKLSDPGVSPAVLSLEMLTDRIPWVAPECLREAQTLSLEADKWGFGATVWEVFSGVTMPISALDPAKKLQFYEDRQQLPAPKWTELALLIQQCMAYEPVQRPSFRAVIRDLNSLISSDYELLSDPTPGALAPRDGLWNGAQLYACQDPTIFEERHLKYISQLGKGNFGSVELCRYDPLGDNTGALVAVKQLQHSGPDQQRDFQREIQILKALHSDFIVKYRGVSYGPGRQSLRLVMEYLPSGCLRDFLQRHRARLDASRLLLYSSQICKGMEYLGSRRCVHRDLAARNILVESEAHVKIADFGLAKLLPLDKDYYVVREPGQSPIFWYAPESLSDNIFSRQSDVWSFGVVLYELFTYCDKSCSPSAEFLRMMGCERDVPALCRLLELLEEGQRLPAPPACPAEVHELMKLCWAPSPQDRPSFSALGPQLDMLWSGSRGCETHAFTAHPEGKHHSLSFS
In short: as §1

Tyk2 = target: T4, Tyk2 (Homo sapiens, UniProt P29597); assay: Biochemical Tyk2 kinase assay (LanthaScreen); settings: for Ki: read-out: Tyk 2 (pKi) (converted)
T4 construct: GST; purchased Life Technologies
In short: as §1

[1] = tested on: IL-2 stimulated pSTAT5 in Tall-1 T cells; assay: Cellular JAK3 potency assay: inhibition of IL-2 stimulated pSTAT5 in Tall-1 T cells; assay type: cell-based, human; settings: for IC50: Homo sapiens, read-out: Tall-1 (pIC50) (converted)
In short: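 Tall-1 human T cells (45,000/well) in phenol red-free DMEM with 10% FBS were preincubated with compound 1 h at 37 °C, then stimulated with IL-2 (final 300 ng/ml) for 30 min. Lysate pSTAT5 read by AlphaLisa; IC50 from inhibition curves, reported as pIC50 (mean±SD).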

[2] = selectivity: difference of pKi JAK3 and pKi JAK1
[3] = TALL-1, IL-2 stimulated pSTAT5 in Tall-1 T cells
[4] = IL-2 stimulated pSTAT5 in Tall-1 T cells
[5] = selectivity JAK3 over JAK1, difference of pKi
[6] = IL-2 stimulated pSTAT5, Tall-1 T cells
[7] = TALL-1, IL-2 stimulated pSTAT5, Tall-1 T cells

T1 sequence (O60674 whole entry): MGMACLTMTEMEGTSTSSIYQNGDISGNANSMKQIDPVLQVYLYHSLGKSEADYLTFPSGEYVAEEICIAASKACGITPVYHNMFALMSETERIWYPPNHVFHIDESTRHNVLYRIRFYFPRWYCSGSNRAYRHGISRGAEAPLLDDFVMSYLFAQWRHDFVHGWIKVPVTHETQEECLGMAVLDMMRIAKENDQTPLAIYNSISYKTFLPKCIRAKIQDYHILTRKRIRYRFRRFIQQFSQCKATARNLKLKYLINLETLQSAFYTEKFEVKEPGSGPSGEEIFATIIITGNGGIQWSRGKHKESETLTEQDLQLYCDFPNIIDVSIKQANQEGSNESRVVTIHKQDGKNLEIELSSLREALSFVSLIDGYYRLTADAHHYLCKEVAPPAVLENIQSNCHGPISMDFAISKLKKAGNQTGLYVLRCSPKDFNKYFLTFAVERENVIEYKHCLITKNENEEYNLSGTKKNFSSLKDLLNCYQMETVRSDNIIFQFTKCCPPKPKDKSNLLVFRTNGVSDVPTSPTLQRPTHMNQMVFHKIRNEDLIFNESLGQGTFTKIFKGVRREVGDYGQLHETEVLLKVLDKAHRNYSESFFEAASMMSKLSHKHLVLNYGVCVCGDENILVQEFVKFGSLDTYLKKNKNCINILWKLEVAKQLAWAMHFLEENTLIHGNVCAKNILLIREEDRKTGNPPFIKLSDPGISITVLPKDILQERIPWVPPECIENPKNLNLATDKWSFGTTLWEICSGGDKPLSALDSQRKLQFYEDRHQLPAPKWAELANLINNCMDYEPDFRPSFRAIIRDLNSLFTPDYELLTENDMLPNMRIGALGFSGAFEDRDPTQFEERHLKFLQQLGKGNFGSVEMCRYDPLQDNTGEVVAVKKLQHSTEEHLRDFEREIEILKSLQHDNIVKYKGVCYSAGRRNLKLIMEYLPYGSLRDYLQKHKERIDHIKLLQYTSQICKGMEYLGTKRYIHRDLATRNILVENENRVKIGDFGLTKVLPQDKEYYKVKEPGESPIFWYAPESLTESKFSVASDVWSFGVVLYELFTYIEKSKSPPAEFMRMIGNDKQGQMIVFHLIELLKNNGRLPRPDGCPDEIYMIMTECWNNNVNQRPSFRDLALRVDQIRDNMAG
T4 sequence (P29597 whole entry): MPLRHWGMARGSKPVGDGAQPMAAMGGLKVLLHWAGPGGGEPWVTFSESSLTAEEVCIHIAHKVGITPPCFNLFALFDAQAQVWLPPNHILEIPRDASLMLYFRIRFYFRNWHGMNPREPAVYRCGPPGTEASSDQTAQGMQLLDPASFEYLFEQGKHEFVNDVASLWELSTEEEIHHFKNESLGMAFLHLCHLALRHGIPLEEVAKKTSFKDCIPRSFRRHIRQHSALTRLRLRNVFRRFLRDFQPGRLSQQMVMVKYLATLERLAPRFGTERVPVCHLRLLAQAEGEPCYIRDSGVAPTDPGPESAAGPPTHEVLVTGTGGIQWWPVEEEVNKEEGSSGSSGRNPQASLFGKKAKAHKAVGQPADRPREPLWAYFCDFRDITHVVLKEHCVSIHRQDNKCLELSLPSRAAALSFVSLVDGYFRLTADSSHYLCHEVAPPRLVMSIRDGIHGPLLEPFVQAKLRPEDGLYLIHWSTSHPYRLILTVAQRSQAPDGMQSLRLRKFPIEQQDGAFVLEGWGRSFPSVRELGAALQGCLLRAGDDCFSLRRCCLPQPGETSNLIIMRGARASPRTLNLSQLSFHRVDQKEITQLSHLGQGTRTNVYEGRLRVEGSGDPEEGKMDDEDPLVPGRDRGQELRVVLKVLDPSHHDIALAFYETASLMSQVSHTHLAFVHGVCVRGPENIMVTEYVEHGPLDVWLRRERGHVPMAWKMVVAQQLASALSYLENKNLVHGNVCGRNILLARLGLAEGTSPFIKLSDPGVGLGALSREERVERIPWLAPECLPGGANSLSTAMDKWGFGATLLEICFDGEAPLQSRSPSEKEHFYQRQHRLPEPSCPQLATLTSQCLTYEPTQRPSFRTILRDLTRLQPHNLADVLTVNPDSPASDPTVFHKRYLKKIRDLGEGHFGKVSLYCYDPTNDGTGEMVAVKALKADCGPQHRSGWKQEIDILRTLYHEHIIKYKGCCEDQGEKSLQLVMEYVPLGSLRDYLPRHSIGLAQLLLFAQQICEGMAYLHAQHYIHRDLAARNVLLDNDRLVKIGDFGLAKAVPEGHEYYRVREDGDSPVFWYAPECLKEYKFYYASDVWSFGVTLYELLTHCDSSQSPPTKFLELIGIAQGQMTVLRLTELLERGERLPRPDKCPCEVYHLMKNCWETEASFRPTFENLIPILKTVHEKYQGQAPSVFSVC
T2 sequence (P23458 whole entry): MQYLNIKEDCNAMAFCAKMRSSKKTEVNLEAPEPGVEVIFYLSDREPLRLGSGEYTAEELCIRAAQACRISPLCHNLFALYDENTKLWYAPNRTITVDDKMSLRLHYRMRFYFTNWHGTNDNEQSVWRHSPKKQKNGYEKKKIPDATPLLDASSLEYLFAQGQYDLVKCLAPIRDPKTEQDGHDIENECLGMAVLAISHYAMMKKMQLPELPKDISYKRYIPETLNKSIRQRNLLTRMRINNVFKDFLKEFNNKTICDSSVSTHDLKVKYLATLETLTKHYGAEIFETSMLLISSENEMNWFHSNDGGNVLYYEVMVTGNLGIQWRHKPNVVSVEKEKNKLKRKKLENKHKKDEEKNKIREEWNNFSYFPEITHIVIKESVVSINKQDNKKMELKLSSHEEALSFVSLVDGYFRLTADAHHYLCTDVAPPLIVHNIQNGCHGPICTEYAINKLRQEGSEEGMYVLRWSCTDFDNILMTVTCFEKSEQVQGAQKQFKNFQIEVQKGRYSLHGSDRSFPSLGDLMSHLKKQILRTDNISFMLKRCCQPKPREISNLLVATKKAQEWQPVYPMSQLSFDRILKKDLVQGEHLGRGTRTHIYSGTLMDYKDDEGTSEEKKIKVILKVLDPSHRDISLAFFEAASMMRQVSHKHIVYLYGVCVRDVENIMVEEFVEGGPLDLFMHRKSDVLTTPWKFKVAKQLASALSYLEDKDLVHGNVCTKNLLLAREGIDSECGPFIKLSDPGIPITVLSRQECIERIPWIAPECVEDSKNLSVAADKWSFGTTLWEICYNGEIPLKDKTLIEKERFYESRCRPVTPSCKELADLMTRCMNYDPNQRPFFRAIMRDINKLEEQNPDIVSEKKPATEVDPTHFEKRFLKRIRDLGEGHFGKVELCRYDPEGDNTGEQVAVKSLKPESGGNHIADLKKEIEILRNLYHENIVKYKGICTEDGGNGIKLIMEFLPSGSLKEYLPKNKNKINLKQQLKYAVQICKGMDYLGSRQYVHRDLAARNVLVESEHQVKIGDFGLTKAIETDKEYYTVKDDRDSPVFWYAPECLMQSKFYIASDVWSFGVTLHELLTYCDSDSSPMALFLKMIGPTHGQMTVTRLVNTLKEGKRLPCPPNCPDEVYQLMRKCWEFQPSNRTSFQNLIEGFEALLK

| Structure (SMILES) | Ki (JAK2) [nM] | Ki (JAK1) [nM] | Ki (JAK3) [nM] | JAK3 (pKi)-JAK1 (pKi) (JAK3; [2]) | Ki (Tyk2) [nM] | IC50 [1, 3] [nM] | JAK 2 (pKi) (JAK2) | JAK 1 (pKi) (JAK1) | JAK 3 (pKi) (JAK3) | Tyk 2 (pKi) (Tyk2) | Tall-1 (pIC50) [1, 4] | JAK3 (pKi)-JAK1 (pKi) (JAK3; [5]) | Tall-1 (pIC50) [1, 6] | IC50 [1, 7] [nM] |
| --- | --- | --- | --- | --- | --- | --- | --- | --- | --- | --- | --- | --- | --- | --- |
| C=CC(=O)N1CC[C@H](Oc2cc(-c3ccc(O)c(Cl)c3)cc3[nH]nc(SC)c23)C1 [Compound 1-41] | > 100 | > 100 | 0.1 to 1 | A (a value of 3 or above) | > 100 | 31.6 to 200 | – | – | – | – | – | – | – | – |
| C=CC(=O)N1CC[C@H](Oc2nc(-c3ccc(O)c(F)c3)nc3[nH]nc(C)c23)C1 [Compound 1-38] | > 100 | > 100 | < 0.1 | A (a value of 3 or above) | > 100 | 31.6 to 200 | – | – | – | – | – | – | – | – |
| C=CC(=O)N1CC[C@H](COc2nc(-c3ccc(O)cc3)cc3[nH]ncc23)C1 [Compound 2-8] | – | – | – | A (a value of 3 or above) | – | – | D (a pKi value between 7 and 8 (Ki between 100 nM and 10 nM)) | E (a pKi value of 7 or below (Ki of 100 nM or above)) | B (a pKi value between 9 and 10 (Ki between 1 nM and 0.1 nM)) | E (a pKi value of 7 or below (Ki of 100 nM or above)) | B (a pIC50 value between 6.7 (included) and 7.5 (IC50 between 200 nM and 32 nM)) | – | – | – |
| C=CC(=O)N1CC[C@H](COc2nc(-c3ccc(O)c(F)c3)nc3[nH]ncc23)C1 [Compound 2-15] | – | – | – | A (a value of 3 or above) | – | – | E (a pKi value of 7 or below (Ki of 100 nM or above)) | E (a pKi value of 7 or below (Ki of 100 nM or above)) | A (a pKi value≥10 (Ki≤0.1 nM)) | E (a pKi value of 7 or below (Ki of 100 nM or above)) | B (a pIC50 value between 6.7 (included) and 7.5 (IC50 between 200 nM and 32 nM)) | – | – | – |
| C=CC(=O)N1CC(Oc2cc(-c3ccc(O)cc3)cc3[nH]ncc23)C1 [Compound 5-2] | – | – | – | A (a value of 3 or above) | – | – | E (a pKi value of 7 or below (Ki of 100 nM or above)) | E (a pKi value of 7 or below (Ki of 100 nM or above)) | B (a pKi value between 9 and 10 (Ki between 1 nM and 0.1 nM)) | E (a pKi value of 7 or below (Ki of 100 nM or above)) | B (a pIC50 value between 6.7 (included) and 7.5 (IC50 between 200 nM and 32 nM)) | – | – | – |
| C=CS(=O)(=O)N1CC[C@H](Oc2cc(-c3ccc(O)cc3)cc3[nH]ncc23)C1 [Compound 18, (S)-4-(4-((1-(vinylsulfonyl)pyrrolidin-3-yl)oxy)-1H-indazol-6-yl)phenol] | 10 to 100 | > 100 | 0.1 to 1 | A (a value of 3 or above) | > 100 | < 31.6 | – | – | – | – | – | – | – | – |
| C=CC(=O)N1CCC[C@H](Oc2cc(-c3ccc(O)c(Cl)c3)nc3[nH]ncc23)C1 [Compound 8-14] | – | – | – | – | – | – | E (a pKi value of 7 or below (Ki of 100 nM or above)) | E (a pKi value of 7 or below (Ki of 100 nM or above)) | A (a pKi value≥10 (Ki≤0.1 nM)) | E (a pKi value of 7 or below (Ki of 100 nM or above)) | – | A (a value of 3 or above) | B (a pIC50 value between 6.7 (included) and 7.5 (IC50 between 200 nM and 32 nM)) | – |
| C=CC(=O)N1CCC[C@@H](C(=O)Nc2cc(-c3ccc(O)cc3)cc3[nH]ncc23)[C@H]1C [Compound 12-57] | 10 to 100 | > 100 | 0.1 to 1 | – | > 100 | – | – | – | – | – | – | A (a value of 3 or above) | – | 31.6 to 200 |
| CN(C)C/C=C/C(=O)N1CC(CSc2cc(-c3ccc(O)c(Cl)c3)cc3[nH]ncc23)C1 [Compound 13-6] | – | – | – | – | – | – | E (a pKi value of 7 or below (Ki of 100 nM or above)) | E (a pKi value of 7 or below (Ki of 100 nM or above)) | A (a pKi value≥10 (Ki≤0.1 nM)) | E (a pKi value of 7 or below (Ki of 100 nM or above)) | – | A (a value of 3 or above) | A (a pIC50 value≥7.5 (IC50≤32 nM)) | – |
| C=CC(=O)N1CC(F)(COc2nc(-c3ccc(O)c(Cl)c3)nc3[nH]ncc23)C1 [Compound 3-92] | > 100 | > 100 | < 0.1 | A (a value of 3 or above) | > 100 | < 31.6 | – | – | – | – | – | – | – | – |
| CN(C)C/C=C/C(=O)N1CC(OCc2cc(-c3ccc(O)c(Cl)c3)cc3[nH]ncc23)C1 [Compound 16-1] | – | – | – | – | – | – | E (a pKi value of 7 or below (Ki of 100 nM or above)) | E (a pKi value of 7 or below (Ki of 100 nM or above)) | A (a pKi value≥10 (Ki≤0.1 nM)) | E (a pKi value of 7 or below (Ki of 100 nM or above)) | – | A (a value of 3 or above) | B (a pIC50 value between 6.7 (included) and 7.5 (IC50 between 200 nM and 32 nM)) | – |
| CN(C)C/C=C/C(=O)N1CC(C)(COc2nc(-c3ccc(O)c(Cl)c3)cc3[nH]ncc23)C1 [Compound 3-95] | – | – | – | A (a value of 3 or above) | – | – | E (a pKi value of 7 or below (Ki of 100 nM or above)) | E (a pKi value of 7 or below (Ki of 100 nM or above)) | A (a pKi value≥10 (Ki≤0.1 nM)) | E (a pKi value of 7 or below (Ki of 100 nM or above)) | A (a pIC50 value≥7.5 (IC50≤32 nM)) | – | – | – |
| C=CC(=O)N1CC(F)(COc2nc(-c3ccc(O)c(F)c3)cc3[nH]ncc23)C1 [Compound 3-49] | 10 to 100 | > 100 | 0.1 to 1 | B (a value of 2.3 to 3) | > 100 | < 31.6 | – | – | – | – | – | – | – | – |
| C=CC(=O)N1CC[C@H](Nc2cc(-c3ccc(O)cc3)cc3[nH]ncc23)[C@H](C)C1 [Compound 12-16] | 1 to 10 | 10 to 100 | 0.1 to 1 | – | > 100 | – | – | – | – | – | – | B (a value of 2.3 to 3) | – | < 31.6 |
| C=CC(=O)N1CC(C#N)(COc2cc(-c3ccc(O)c(F)c3)nc3[nH]ncc23)C1 [Compound 3-111] | – | – | – | A (a value of 3 or above) | – | – | E (a pKi value of 7 or below (Ki of 100 nM or above)) | E (a pKi value of 7 or below (Ki of 100 nM or above)) | B (a pKi value between 9 and 10 (Ki between 1 nM and 0.1 nM)) | E (a pKi value of 7 or below (Ki of 100 nM or above)) | C (a pIC50 value between 6 and 6.7 (IC50 between 1 μM and 200 nM)) | – | – | – |
| C=CC(=O)N1CC(F)(COc2cc(-c3ccc(O)c(F)c3)cc3[nH]ncc23)C1 [Compound 3-41] | 1 to 10 | 0.1 to 1 | 0.1 to 1 | B (a value of 2.3 to 3) | > 100 | < 31.6 | – | – | – | – | – | – | – | – |
| C=CC(=O)N1CC2(CC(Oc3nc(-c4ccc(O)c(F)c4)nc4[nH]ncc34)C2)C1 [Compound 15-10] | – | – | – | – | – | – | E (a pKi value of 7 or below (Ki of 100 nM or above)) | E (a pKi value of 7 or below (Ki of 100 nM or above)) | A (a pKi value≥10 (Ki≤0.1 nM)) | E (a pKi value of 7 or below (Ki of 100 nM or above)) | – | A (a value of 3 or above) | A (a pIC50 value≥7.5 (IC50≤32 nM)) | – |
